In paper PMC5218480 (PLoS ONE, 2017):

Test system: MV-4-11 cells
Test: Gene expression microarray analysis (Affymetrix PrimeView) and GSEA
Type: cell-based, human
Parameters: RFU PODN (11730768_x_at) / Fold change /veh PODN (11730768_x_at) / RFU LINC00158 (11744669_a_at) / Fold change /veh LINC00158 (11744669_a_at) / RFU DUSP10 (11751237_a_at) / Fold change /veh DUSP10 (11751237_a_at) / RFU ID3 (11757404_x_at) / Fold change /veh ID3 (11757404_x_at) / RFU PLEKHG5 (11737974_s_at) / Fold change /veh PLEKHG5 (11737974_s_at) / RFU LRRC4B (11730491_at) / Fold change /veh LRRC4B (11730491_at) / RFU GIMAP4 (11747438_a_at) / Fold change /veh GIMAP4 (11747438_a_at) / RFU KRT8 (11758183_x_at) / Fold change /veh KRT8 (11758183_x_at) / RFU CNN1 (11734310_a_at) / Fold change /veh CNN1 (11734310_a_at) / RFU VPS37D (11726825_at) / Fold change /veh VPS37D (11726825_at) / RFU C10orf10 (11716522_x_at) / Fold change /veh C10orf10 (11716522_x_at) / RFU KIR2DL2 /// KIR2DL4 /// KIR2DL5A /// KIR2DL5B /// KIR2DS1 /// KIR2DS2 /// KIR2DS3 /// KIR2DS4 /// KIR3DL3 /// KIR3DL3 /// KIR3DS1 (11738374_at) / Fold change /veh KIR2DL2 /// KIR2DL4 /// KIR2DL5A /// KIR2DL5B /// KIR2DS1 /// KIR2DS2 /// KIR2DS3 /// KIR2DS4 /// KIR3DL3 /// KIR3DL3 /// KIR3DS1 (11738374_at) / RFU C1QL1 (11718748_at) / Fold change /veh C1QL1 (11718748_at) / RFU TMPRSS4 (11747572_a_at) / Fold change /veh TMPRSS4 (11747572_a_at) / RFU HAMP (11756126_x_at) / Fold change /veh HAMP (11756126_x_at) / RFU RNFT2 (11725882_a_at) / Fold change /veh RNFT2 (11725882_a_at) / RFU NR4A2 (11747474_a_at) / Fold change /veh NR4A2 (11747474_a_at) / RFU ABCC12 (11746883_a_at) / Fold change /veh ABCC12 (11746883_a_at) / RFU TMEM136 (11760407_x_at) / Fold change /veh TMEM136 (11760407_x_at) / RFU CLDN22 /// WWC2 (11732394_at) / Fold change /veh CLDN22 /// WWC2 (11732394_at) / RFU HLA-DPB1 (11760878_x_at) / Fold change /veh HLA-DPB1 (11760878_x_at) / RFU SPINT1 (11716480_a_at) / Fold change /veh SPINT1 (11716480_a_at) / RFU GAP43 (11754022_s_at) / Fold change /veh GAP43 (11754022_s_at) / RFU A4GNT (11735810_at) / Fold change /veh A4GNT (11735810_at) / RFU PRB3 (11715151_x_at) / Fold change /veh PRB3 (11715151_x_at) / RFU TUBB4B (11761932_at) / Fold change /veh TUBB4B (11761932_at) / RFU CAPN14 (11732068_a_at) / Fold change /veh CAPN14 (11732068_a_at) / RFU TMCC2 (11721928_a_at) / Fold change /veh TMCC2 (11721928_a_at) / RFU IRGQ (11745062_a_at) / Fold change /veh IRGQ (11745062_a_at) / RFU FAM174B (11720279_a_at) / Fold change /veh FAM174B (11720279_a_at) / RFU TMPRSS4 (11748680_a_at) / Fold change /veh TMPRSS4 (11748680_a_at) / RFU FAM212B (11763350_a_at) / Fold change /veh FAM212B (11763350_a_at) / RFU PLEKHG5 (11743358_a_at) / Fold change /veh PLEKHG5 (11743358_a_at) / RFU ZSCAN30 (11745921_a_at) / Fold change /veh ZSCAN30 (11745921_a_at) / RFU CMKLR1 (11741424_a_at) / Fold change /veh CMKLR1 (11741424_a_at) / RFU LOC101060620 /// MAPK8IP1 (11723275_at) / Fold change /veh LOC101060620 /// MAPK8IP1 (11723275_at) / RFU SPTSSB (11747773_x_at) / Fold change /veh SPTSSB (11747773_x_at) / RFU PRSS12 (11739890_at) / Fold change /veh PRSS12 (11739890_at) / RFU BIN1 (11741810_x_at) / Fold change /veh BIN1 (11741810_x_at) / RFU WNT11 (11732464_a_at) / Fold change /veh WNT11 (11732464_a_at) / RFU C10orf10 (11716521_a_at) / Fold change /veh C10orf10 (11716521_a_at) / RFU C5orf56 (11738089_at) / Fold change /veh C5orf56 (11738089_at) / RFU CYB561 (11721691_x_at) / Fold change /veh CYB561 (11721691_x_at) / RFU ANKRD19P (11752326_a_at) / Fold change /veh ANKRD19P (11752326_a_at) / RFU OR2T12 /// OR2T33 /// OR2T8 (11738714_s_at) / Fold change /veh OR2T12 /// OR2T33 /// OR2T8 (11738714_s_at) / RFU VCAN (11748164_a_at) / Fold change /veh VCAN (11748164_a_at) / RFU JSRP1 (11732532_at) / Fold change /veh JSRP1 (11732532_at) / RFU KRTAP10-11 (11738290_x_at) / Fold change /veh KRTAP10-11 (11738290_x_at) / RFU MYO3A (11730013_a_at) / Fold change /veh MYO3A (11730013_a_at) / RFU EBF3 (11725865_a_at) / Fold change /veh EBF3 (11725865_a_at) / RFU CAMK2N1 (11719241_x_at) / Fold change /veh CAMK2N1 (11719241_x_at) / RFU C5orf56 (11738088_a_at) / Fold change /veh C5orf56 (11738088_a_at) / RFU OLFML3 (11715873_a_at) / Fold change /veh OLFML3 (11715873_a_at) / RFU LOC100653217 /// NTM (11731650_a_at) / Fold change /veh LOC100653217 /// NTM (11731650_a_at) / RFU MAPK11 (11762145_a_at) / Fold change /veh MAPK11 (11762145_a_at) / RFU FIZ1 (11724087_x_at) / Fold change /veh FIZ1 (11724087_x_at) / RFU OASL (11726364_x_at) / Fold change /veh OASL (11726364_x_at) / RFU SOX15 (11748057_x_at) / Fold change /veh SOX15 (11748057_x_at) / RFU CD79A (11719716_a_at) / Fold change /veh CD79A (11719716_a_at) / RFU HIST1H1D (11736915_at) / Fold change /veh HIST1H1D (11736915_at) / RFU CASKIN2 (11723855_a_at) / Fold change /veh CASKIN2 (11723855_a_at) / RFU LOC730098 (11760151_x_at) / Fold change /veh LOC730098 (11760151_x_at) / RFU OR4N2 (11742367_at) / Fold change /veh OR4N2 (11742367_at) / RFU PRRT2 (11749266_a_at) / Fold change /veh PRRT2 (11749266_a_at) / RFU SNX32 (11753110_a_at) / Fold change /veh SNX32 (11753110_a_at) / RFU CDHR5 (11726645_a_at) / Fold change /veh CDHR5 (11726645_a_at) / RFU RCAN1 (11760418_a_at) / Fold change /veh RCAN1 (11760418_a_at) / RFU FAM167A (11723789_a_at) / Fold change /veh FAM167A (11723789_a_at) / RFU FAM26E (11764081_at) / Fold change /veh FAM26E (11764081_at) / RFU ISYNA1 (11749810_s_at) / Fold change /veh ISYNA1 (11749810_s_at) / RFU ACY1 (11761880_at) / Fold change /veh ACY1 (11761880_at) / RFU 11764098_at / Fold change /veh 11764098_at / RFU SAMD14 (11745864_x_at) / Fold change /veh SAMD14 (11745864_x_at) / RFU NPB (11741838_a_at) / Fold change /veh NPB (11741838_a_at) / RFU TMPRSS6 (11731388_a_at) / Fold change /veh TMPRSS6 (11731388_a_at) / RFU KRTAP10-2 (11738614_at) / Fold change /veh KRTAP10-2 (11738614_at) / RFU ARHGAP8 /// PRR5-ARHGAP8 (11727945_x_at) / Fold change /veh ARHGAP8 /// PRR5-ARHGAP8 (11727945_x_at) / RFU KRTAP5-7 /// NADSYN1 (11734609_at) / Fold change /veh KRTAP5-7 /// NADSYN1 (11734609_at) / RFU RASL12 (11751679_a_at) / Fold change /veh RASL12 (11751679_a_at) / RFU CDKN2B (11736163_a_at) / Fold change /veh CDKN2B (11736163_a_at) / RFU PRF1 (11729649_at) / Fold change /veh PRF1 (11729649_at) / RFU, ZNF638 /// ZNF638-IT1 / Fold change vs veh, ZNF638 /// ZNF638-IT1 / RFU, PANK3 / Fold change vs veh, PANK3 / RFU, SH3YL1 / Fold change vs veh, SH3YL1 / RFU, ZEB2 / Fold change vs veh, ZEB2 / RFU, NRIP1 / Fold change vs veh, NRIP1 / RFU, PTTG1IP / Fold change vs veh, PTTG1IP / RFU, CAPN2 / Fold change vs veh, CAPN2 / RFU, MED14 / Fold change vs veh, MED14 / RFU, SNORA58 / Fold change vs veh, SNORA58 / RFU, C1orf63 / Fold change vs veh, C1orf63 / RFU, LRRFIP1 / Fold change vs veh, LRRFIP1 / RFU, NDUFAF7 / Fold change vs veh, NDUFAF7 / RFU, SLC12A2 / Fold change vs veh, SLC12A2 / RFU, IBTK / Fold change vs veh, IBTK / RFU, ESF1 / Fold change vs veh, ESF1 / Fold change vs veh, TMEM50B / RFU, TAOK1 / Fold change vs veh, TAOK1 / RFU, ACBD3 / Fold change vs veh, ACBD3 / RFU, TMA16 / Fold change vs veh, TMA16 / RFU, RWDD3 / Fold change vs veh, RWDD3 / RFU, BCAT1 / Fold change vs veh, BCAT1 / RFU, EDEM3 / Fold change vs veh, EDEM3 / RFU, TMEM33 / Fold change vs veh, TMEM33 / RFU, WDR75 / Fold change vs veh, WDR75 / RFU, AHCTF1 / Fold change vs veh, AHCTF1 / RFU, TFRC / Fold change vs veh, TFRC / RFU, ZDHHC17 / Fold change vs veh, ZDHHC17 / RFU, NOM1 / Fold change vs veh, NOM1 / RFU, ARL8B / Fold change vs veh, ARL8B / RFU, ZBTB11 / Fold change vs veh, ZBTB11 / RFU, TAMM41 / Fold change vs veh, TAMM41 / RFU, KIAA1704 /// LOC100996395 / Fold change vs veh, KIAA1704 /// LOC100996395 / RFU, ING1 / Fold change vs veh, ING1 / RFU, TRMT61B / Fold change vs veh, TRMT61B / RFU, FUBP3 / Fold change vs veh, FUBP3 / RFU, TP53 / Fold change vs veh, TP53 / RFU, TNKS2 / Fold change vs veh, TNKS2 / RFU, ZFP14 / Fold change vs veh, ZFP14 / RFU, ACTR2 / Fold change vs veh, ACTR2 / RFU, PPP3R1 / Fold change vs veh, PPP3R1 / RFU, PIK3R1 / Fold change vs veh, PIK3R1 / RFU, HNRNPA1 / Fold change vs veh, HNRNPA1 / RFU, RNF170 / Fold change vs veh, RNF170 / RFU, ZNF28 / Fold change vs veh, ZNF28 / RFU, RNGTT / Fold change vs veh, RNGTT / RFU, OGT / Fold change vs veh, OGT / RFU, BRD1 / Fold change vs veh, BRD1 / RFU, MARS / Fold change vs veh, MARS / RFU, ZNF655 / Fold change vs veh, ZNF655 / RFU, FAHD1 / Fold change vs veh, FAHD1 / RFU, BDP1 / Fold change vs veh, BDP1 / RFU, LRRCC1 / Fold change vs veh, LRRCC1 / RFU, ARID1A / Fold change vs veh, ARID1A / RFU, ZNF146 / Fold change vs veh, ZNF146 / RFU, ZNF330 / Fold change vs veh, ZNF330 / RFU, GPN3 / Fold change vs veh, GPN3 / RFU, C9orf123 / Fold change vs veh, C9orf123 / RFU, N4BP2L2 / Fold change vs veh, N4BP2L2 / RFU, ARFIP1 / Fold change vs veh, ARFIP1 / RFU, FAM179B / Fold change vs veh, FAM179B / RFU, BCL10 / Fold change vs veh, BCL10 / RFU, UHRF1BP1L / Fold change vs veh, UHRF1BP1L / RFU, BET1 / Fold change vs veh, BET1 / RFU, CNOT2 / Fold change vs veh, CNOT2 / RFU, ZNF268 / Fold change vs veh, ZNF268 / Fold change vs veh, ZNF507 / RFU, DGCR2 / Fold change vs veh, DGCR2 / RFU, WDSUB1 / Fold change vs veh, WDSUB1 / Fold change vs veh, HSP90B1 /// MIR3652 / RFU, ADSS / Fold change vs veh, ADSS / RFU, GK / Fold change vs veh, GK / RFU, ZNF148 / Fold change vs veh, ZNF148 / RFU, TAF9 / Fold change vs veh, TAF9 / RFU, SLC1A5 / Fold change vs veh, SLC1A5 / RFU, SLMO2 / Fold change vs veh, SLMO2 / RFU, ABCC4 / Fold change vs veh, ABCC4 / RFU, LOC101060439 /// RAP1B / Fold change vs veh, LOC101060439 /// RAP1B / RFU, RFX7 / Fold change vs veh, RFX7 / RFU, GTPBP10 / Fold change vs veh, GTPBP10 / RFU, CNEP1R1 / Fold change vs veh, CNEP1R1 / RFU, BIVM-ERCC5 /// ERCC5 / Fold change vs veh, BIVM-ERCC5 /// ERCC5 / RFU, ILF3 / Fold change vs veh, ILF3 / RFU 11762660_at / Fold change /veh 11762660_at / RFU VCAN (11757783_s_at) / Fold change /veh VCAN (11757783_s_at) / RFU DDX43 (11728927_at) / Fold change /veh DDX43 (11728927_at) / RFU KRT8 (11758188_x_at) / Fold change /veh KRT8 (11758188_x_at) / RFU NKD1 (11759106_at) / Fold change /veh NKD1 (11759106_at) / RFU SRD5A1 (11742802_a_at) / Fold change /veh SRD5A1 (11742802_a_at) / RFU TPSAB1 /// TPSB2 (11721975_s_at) / Fold change /veh TPSAB1 /// TPSB2 (11721975_s_at) / RFU GSTM3 (11746129_a_at) / Fold change /veh GSTM3 (11746129_a_at) / RFU IL23R (11737362_x_at) / Fold change /veh IL23R (11737362_x_at) / RFU TMEM51 (11727254_a_at) / Fold change /veh TMEM51 (11727254_a_at) / RFU PIWIL2 (11732686_x_at) / Fold change /veh PIWIL2 (11732686_x_at) / RFU ORM1 (11744905_x_at) / Fold change /veh ORM1 (11744905_x_at) / RFU CCDC152 (11743942_at) / Fold change /veh CCDC152 (11743942_at) / RFU ECM1 (11717891_a_at) / Fold change /veh ECM1 (11717891_a_at) / RFU IL23R (11748794_a_at) / Fold change /veh IL23R (11748794_a_at) / RFU TNFAIP8L3 (11732012_x_at) / Fold change /veh TNFAIP8L3 (11732012_x_at) / RFU MBOAT4 (11741988_at) / Fold change /veh MBOAT4 (11741988_at) / RFU 11764193_at / Fold change /veh 11764193_at / RFU TMEM53 (11763286_at) / Fold change /veh TMEM53 (11763286_at) / RFU MAGEB2 (11727129_at) / Fold change /veh MAGEB2 (11727129_at) / RFU TMEM200A (11744735_a_at) / Fold change /veh TMEM200A (11744735_a_at) / RFU CCDC152 (11751479_a_at) / Fold change /veh CCDC152 (11751479_a_at) / RFU FAM211A (11726209_a_at) / Fold change /veh FAM211A (11726209_a_at) / RFU RGS16 (11746705_a_at) / Fold change /veh RGS16 (11746705_a_at) / RFU VCAN (11755009_s_at) / Fold change /veh VCAN (11755009_s_at) / RFU RHOB (11743442_s_at) / Fold change /veh RHOB (11743442_s_at) / RFU RGS16 (11720943_a_at) / Fold change /veh RGS16 (11720943_a_at) / RFU RGS16 (11720944_at) / Fold change /veh RGS16 (11720944_at) / RFU, VPS4B / Fold change vs veh, VPS4B / RFU, CREB1 / Fold change vs veh, CREB1 / RFU, DNAJC13 / Fold change vs veh, DNAJC13 / RFU, GNAQ / Fold change vs veh, GNAQ / RFU, CDK5R1 / Fold change vs veh, CDK5R1 / RFU, ZRANB3 / Fold change vs veh, ZRANB3 / RFU, CUL4A / Fold change vs veh, CUL4A / RFU, CCNY / Fold change vs veh, CCNY / RFU, UFL1 / Fold change vs veh, UFL1 / RFU, COG3 / Fold change vs veh, COG3 / RFU, DIAPH2 / Fold change vs veh, DIAPH2 / RFU, SKA2 / Fold change vs veh, SKA2 / RFU, AFF3 / Fold change vs veh, AFF3 / RFU, LMF1 / Fold change vs veh, LMF1 / RFU, IPO11 / Fold change vs veh, IPO11 / RFU, DFFB / Fold change vs veh, DFFB / RFU, FOXP1 / Fold change vs veh, FOXP1 / RFU, CARD8 / Fold change vs veh, CARD8 / RFU, STRN3 / Fold change vs veh, STRN3 / RFU, ADK / Fold change vs veh, ADK / RFU, RASSF2 / Fold change vs veh, RASSF2 / RFU, WIPF1 / Fold change vs veh, WIPF1 / RFU, LARP1B / Fold change vs veh, LARP1B / RFU, RASA1 / Fold change vs veh, RASA1 / RFU, RB1 / Fold change vs veh, RB1 / RFU, PPFIA1 / Fold change vs veh, PPFIA1 / RFU, MAT2A / Fold change vs veh, MAT2A / RFU, CCT5 / Fold change vs veh, CCT5 / RFU, WDR92 / Fold change vs veh, WDR92 / RFU, CUX1 / Fold change vs veh, CUX1 / RFU, TTC7A / Fold change vs veh, TTC7A / RFU, TMEM135 / Fold change vs veh, TMEM135 / RFU, DEPTOR / Fold change vs veh, DEPTOR / RFU, CPM / Fold change vs veh, CPM / RFU, DNAJB6 / Fold change vs veh, DNAJB6 / RFU, CACNA2D3 / Fold change vs veh, CACNA2D3 / RFU, DTX4 / Fold change vs veh, DTX4 / RFU, TFCP2 / Fold change vs veh, TFCP2 / RFU, GMCL1 /// GMCL1P1 / Fold change vs veh, GMCL1 /// GMCL1P1 / RFU, AEBP2 / Fold change vs veh, AEBP2 / RFU, SNHG1 /// SNORD22 /// SNORD25 /// SNORD26 /// SNORD27 /// SNORD28 /// SNORD29 /// SNORD31 / Fold change vs veh, SNHG1 /// SNORD22 /// SNORD25 /// SNORD26 /// SNORD27 /// SNORD28 /// SNORD29 /// SNORD31 / Fold change (Aza/veh), C12orf56 (ProbeSet 11735607_a_at) / Fold change (ACY-1035/veh), C12orf56 (ProbeSet 11735607_a_at) / Fold change (Aza/veh), FGFR1OP (ProbeSet 11751329_s_at) / Fold change (ACY-1035/veh), FGFR1OP (ProbeSet 11751329_s_at) / Fold change (Aza/veh), VPS36 (ProbeSet 11739960_a_at) / Fold change (ACY-1035/veh), VPS36 (ProbeSet 11739960_a_at) / RFU SYPL1 (11715823_x_at) / Fold change /veh SYPL1 (11715823_x_at) / RFU IGFBP7 (11715501_s_at) / Fold change /veh IGFBP7 (11715501_s_at) / RFU REEP3 (11722064_at) / Fold change /veh REEP3 (11722064_at) / RFU IGLL1 (11728026_x_at) / Fold change /veh IGLL1 (11728026_x_at): dose or concentration left out as unconfirmed
Settings: MV-4-11 cells, 48 hours

SMILES: Nc1ccc(-c2cccs2)cc1NC(=O)c1ccc2c(c1)cc(C1CC1)n2CCN1CCOCC1 [ACY-1035]
- RFU JSRP1 (11732532_at): 43.67 RFU
